The subject of this assay is 5-HT2 receptors. As to the kind of experiment: Traditional GPCR binding and functional assays (radioligand binding, IP1, β-arrestin). The format is cell-based, human. The conditions noted are these: FIG. 3B. How it is done:
Radioligand Binding Assays (5-HT2AR and 5-HT2CR). The 5-HT2AR and 5-HT2CR competitive radioligand binding assays were performed at Epics Therapeutics S.A. (Belgium, FAST-0505B) using conventional methods. Briefly, competition binding was performed in duplicate in the wells of a 96-well plate (Master Block, Greiner, 786201) containing binding buffer, membrane extracts, radiotracer [^3H]-DOI and test compound. Nonspecific binding was determined by co-incubation with 200-fold excess of cold competitor DOI. The samples were incubated in a final volume of 0.1 mL at a temperature and for a duration optimized for either the 5-HT2AR or 5-HT2CR and then filtered over filter plates. […] The plates were incubated for 15 min on an orbital shaker and then counted with a TopCount™ for 1 min/well. […]
IP1 Assay (5-HT2AR and 5-HT2CR). […] After addition of the lysis buffer containing IP1-d2 and anti-IP1 cryptate detection reagents, plates were incubated for 1 h at room temperature and fluorescence ratios were measured according to the manufacturer's specifications using the HTRF kit. […]
β-Arrestin Activation (PathHunter®). […] PK and EA are then expressed as fusion proteins in U2OS cells, with PK fused to the GPCR of interest, and EA fused to β-Arrestin. […]
Serotonin 5-HT2A In Vitro Radioligand Binding Competition Assay. […] Nonspecific binding is determined by co-incubation with 200-fold excess of cold competitor. […]

Each structure is given as a SMILES string.

Regarding `CCN(CC)C(=O)[C@@H]1C=C2c3cccc4ccn(c34)C[C@H]2N(C)C1` [(+)-JRT], the “agonism of 5-HT2 receptors” value is “potent agonist of 5-HT2 receptors”.
